According to the METLIN SMRT retention time set (Domingo-Almenara et al. 2019):

Assay: gradient 5% acetonitrile 3 min, to 50% in 2 min, to 85% in 15 min, held 3 min, 100 µL/min
Conditions: column: Zorbax Extend-C18 2.1 x 50 mm; eluents: water / acetonitrile, 0.1% formic acid
Method in brief: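 Using water and acetonitrile that each contained 0.1% formic acid, mixtures of ~100 pure standards were separated at 100 μL/min on a Zorbax Extend-C18 column (2.1 × 50 mm, 1.8 μm). The HPLC fed a quadrupole time-of-flight mass spectrometer working in positive and negative ionization mode, with dead and dwell volumes of 40 μL and 900 μL. Data were acquired over 3 months. Retention time was read from computationally picked adduct peaks after manual inspection of each.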

RP-LC retention time	Compound
912 s	O=C(Cn1cccc(-c2nc(-c3ccc(F)cc3)no2)c1=O)Nc1ccccc1Br
573 s	NC(=O)Cn1c(CNC(=O)c2ccccc2)nc2ccccc21
827 s	c1cncc(-c2nnc3sc(-c4ccc5c(c4)OCCO5)nn23)c1
632 s	CCc1ccc(NC(=O)N2CCN(CCn3c(CC)nc4cccnc43)CC2)cc1
747 s	O=C1CC(C(F)(F)F)c2c(c(C(=O)O)cn2-c2cccc(F)c2)N1 (stereo not given)
924 s	Cc1nc(-c2ccc(N3CCN(C(=O)c4cc5ccccc5[nH]4)CC3)nc2)sc1C
875 s	O=C(C1=NN(Cc2cccc(F)c2)c2ccc(Cl)cc2S1(=O)=O)N1CCOCC1
1040 s	CCOC(=O)c1sc2nc(NC(=O)COc3ccccc3)sc2c1C
561 s	CCc1nnc2cc(N3CCN(C(=O)c4ccc(Cl)cc4)CC3)cnn12
591 s	Cc1ccn2cc(C(=O)NCc3cccs3)nc2c1
564 s	O=C1CCC(C(=O)N2CCCn3ccnc3C2C2CCCC2)=NN1 (stereo not given)
804 s	CC(C)CCNC(=O)Cn1ccn2nc(-c3ccc(F)cc3)c(CO)c2c1=O
726 s	Cc1cc(C(F)(F)F)nn1CC(=O)NCC1Cn2cccc2CN1C (stereo not given)
1100 s	COc1ccccc1N1CCN(c2cc(SCC(=O)Nc3ccccc3F)ncn2)CC1
631 s	CCOc1ccccc1NC(=O)N1CCN(c2cc(C)nc(N3CCOCC3)n2)CC1
591 s	COc1ccc(-c2cc(N3CCN(C(=O)c4ccc(Br)o4)CC3)ncn2)cc1
1040 s	Cc1cc(C)c(S(=O)(=O)NCCc2cn(CC(C)C)c3ncccc23)cc1C
693 s	Cc1cc2c(=O)n(CC(=O)Nc3ccc4c(c3)OCCO4)c3cccnc3n2n1
1180 s	COc1cccc2cc(C(=O)Nc3nc(-c4ccccc4)cs3)c(=O)oc12
901 s	Cc1cc(C)cc(S(=O)(=O)N2CCCN(c3ccc(=O)n(-c4ccccc4)n3)CC2)c1
771 s	CC(C)(C)CC(C)(C)n1nnnc1N
824 s	CC(C)CNC(=O)NCCC1CCN(S(=O)(=O)c2ccc(F)cc2)CC1
667 s	Cc1ccc(-c2nnc(CC(=O)NCC3CCCO3)o2)cc1 (stereo not given)

RP-LC retention time	Compound
915 s	COc1ccc(N2CCN(c3nc(C(=O)NCC4CC4)cs3)CC2)cc1
753 s	COC(=O)c1ncn2c1C(=O)N(c1ccc(C)cc1C)C(C)(C(=O)NC1CCCC1)C2 (stereo not given)
984 s	CC(C)CC(=O)NCC(c1ccccc1Cl)c1c[nH]c2ccccc12 (stereo not given)
1000 s	CC(C)(CO)c1cc2cc(NC(=O)C3(c4ccc5c(c4)OC(F)(F)O5)CC3)c(F)cc2n1C[C@@H](O)CO
760 s	Cc1noc(C)c1CNC(=O)CCCc1ccccc1
1290 s	CCn1cc(C(=O)Nc2ccc(Br)cc2F)c(=O)c2ccc(C)nc21
787 s	CCCN(CC1CCOC1)C(=O)c1ccc(F)c(F)c1 (stereo not given)
612 s	CCc1ccc2[nH]c3c(c(=O)c2c1)CN(CC(=O)NCc1ccc(OC)cc1)CC3
850 s	CN1C(=O)c2cc(C(=O)NCc3ccc(Cl)cc3)nn2CC1(C)C(=O)NC1CCCCC1 (stereo not given)
718 s	Cn1cc(CC(=O)N2CCC(C(=O)NCC(F)(F)F)CC2)c2ccccc21
1110 s	COc1ccc(-c2nnc(Cc3nc(-c4ccc(C)c(C)c4)no3)o2)cc1
674 s	CC1CCN(S(=O)(=O)c2ccc(-c3nnc(C(=O)NCCN4CCOCC4)o3)cc2)CC1
813 s	Cc1cc(-c2nnc(C3CC3)o2)c(C)n1CC(=O)NCc1cc(F)cc(F)c1
1230 s	c1ccc(-c2nc3cc(-c4noc(C5CC5)n4)ccc3o2)cc1
1290 s	CCCN1C(=O)COc2ccc(-c3noc(-c4ccccc4C)n3)cc21
796 s	Cc1noc(C2CCCCN2C(=O)c2cc(-c3ccccc3)n[nH]2)n1 (stereo not given)
809 s	CCOC(=O)c1ccc(NC(=O)N2CCCC2c2cc(C)no2)cc1 (stereo not given)
674 s	CC(=O)c1ccc(Oc2ccc(/C(C)=N\N=C(N)N)cc2)cc1
710 s	CSc1nnc(-c2nn(C)c3c2CN(C(=O)c2ccccc2Cl)CC3)n1C
611 s	CC(=O)N(Cc1nn(C)c2c1CN(Cc1sccc1C)CC2)c1ccccc1
716 s	Cc1nc2ccc(NC(=O)Cc3ccc4c(c3)OCO4)cc2s1
913 s	CN(CC#N)C(=O)c1ccc(N2CCc3ccccc32)s1
744 s	Nc1cc(C2CCN(C(=O)Nc3cccc(Br)c3)CC2)no1

RP-LC retention time	Compound
1020 s	Cc1ccc(-c2cc3c4nnc(SCC(=O)Nc5ccccc5Cl)n4ccn3n2)cc1C
821 s	COC(=O)C1=CN(c2ccc(OC)c(OC)c2)c2cc(F)ccc2S1(=O)=O
621 s	CC1CCN(CCNC(=O)c2ccc3c(c2)nc2n3CCN(Cc3ccccc3)C2=O)CC1
678 s	O=C(NCc1ccc(F)cc1)C1CCc2nc(N3CCCCC3)ncc2C1 (stereo not given)
904 s	COc1cc(-c2nnc(/C=C/c3ccccc3)o2)cc(OC)c1OC
965 s	CCN(CC)c1cc2c(cc1NC(=O)COc1ccc(Cl)cc1)n(C)c(=O)c(=O)n2C
582 s	O=C(c1cc2c(s1)CCC(C(=O)N1CCN(c3ccccn3)CC1)C2)N1CCOCC1 (stereo not given)
641 s	O=S(=O)(c1ccccc1)N1CC(n2cnnc2-c2ccccc2)C1
697 s	Cc1ccc(C)c(NC(=O)Nc2c(-c3ccc(F)cc3)nc3ccccn23)c1
793 s	O=C(COc1ccc(F)cc1)N1C[C@@H]2C[C@H]1C[C@@H]2NS(=O)(=O)c1ccccc1
935 s	Cc1ccc(CNC(=O)C2(C)CN(S(C)(=O)=O)CC(=O)N2c2ccc(C(C)C)cc2)cc1 (stereo not given)
825 s	COc1ccc(Br)cc1Cn1nnc(C(=O)NCc2cccs2)c1N
732 s	Cc1cccc(N2CCN(c3cc(C(=O)O)c4cc(NC(=O)C(C)C)ccc4n3)CC2)c1C
824 s	Cn1ncc2c3ccccc3n(CCCC(=O)N3CCCCC3)c2c1=O
1020 s	O=C(NC1CCCC1)C(=O)c1cccn1Cc1ccc(F)cc1
664 s	COc1cccc(CN2CC=C(C(=O)N3CCN(c4ccccc4)CC3)CC2)c1
623 s	COC1C(=O)N(CC2CC2)C12CCN(Cc1ccc(F)c(F)c1)CC2 (stereo not given)
1300 s	Cc1sc(C)c(S(=O)(=O)N2CC=C(c3ccccc3)CC2)c1-c1cc(C(F)(F)F)on1
827 s	COC(=O)c1cc(OCC(=O)NCc2ccc3c(c2)OCO3)c2cc(Cl)ccc2n1
1030 s	CCOc1ccccc1-c1noc(CN2C(=O)COc3ccc(C)cc32)n1
620 s	CCN1C(=O)C(CC(=O)NCCCOC)Sc2ncccc21 (stereo not given)
691 s	CCc1nnc2ccc(NC(=O)Nc3ccccc3C)cn12
713 s	CCCS(=O)(=O)N1CCC(Cc2nncn2-c2ccccc2)CC1

RP-LC retention time	Compound
730 s	Cc1cc(C)cc(NC(=O)N2CCC(c3nc(C(=O)N(C)C)c(C)o3)CC2)c1
701 s	O=C(O)c1cncc(Br)c1
705 s	Cc1nc2cc(N3CCCC(C(=O)NCc4ccccc4)C3)cnc2nc1C (stereo not given)
872 s	CCOC(=O)c1ccc(NC(=O)Cn2c(=O)nc(N3CCC(C)CC3)c3ccccc32)cc1
640 s	Cc1nc2cccnc2n1C1CCN(C(=O)Nc2ccc(F)cc2)CC1
934 s	CCCc1nc(-c2c(C)cc(C)nc2NC(=O)c2ccccc2Cl)no1
772 s	O=C(CN1C(=O)NC2(CCCCC2)C1=O)NCc1cccc(Br)c1
1070 s	CCc1nc(-c2csc(S(=O)(=O)N3CCCC(C(=O)Nc4cccc(F)c4)C3)c2)no1 (stereo not given)
619 s	CCCN(C(=O)Nc1ccc(CC)cc1)c1nc(-c2ccc(C3CCCCC3)cc2)cs1
1120 s	CCc1ccc2c(-c3cccc(Cl)c3)nc(=O)n(CC)c2n1
574 s	O=C(Nc1ccc(-c2nc3ccccc3[nH]2)cc1)c1ccccc1[N+](=O)[O-]
1210 s	Cc1ccc(-c2nc(C)cc(SCC(=O)Nc3cc(C)ccc3C)n2)cc1
775 s	COc1ccc2[nH]cc(CCN3CC(C(=O)Nc4ccc(C)cc4C)CC3=O)c2c1 (stereo not given)
609 s	c1ccc2c(-c3nc(-c4ccc5c(c4)ncn5CCN4CCCCC4)no3)n[nH]c2c1
636 s	O=C(C1CC1)N1CCC(c2noc(-c3ccccn3)n2)C1 (stereo not given)
653 s	CC(C)c1cnn2c(NCc3ccccc3)cc(NCCCCCCN)nc12
910 s	O=C(NCc1ccc(F)cc1)c1nnc(-c2ccc(S(=O)(=O)N3CCOCC3)cc2)o1
837 s	COc1ccc(-c2cn3ccn(-c4cccc(Cl)c4)c(=O)c3n2)cc1
588 s	COc1ccc(-c2nc(N(CCCN3CCOCC3)Cc3ccco3)c3ccccc3n2)cc1
831 s	Cc1sc(NC(=O)C(C)C)nc1-c1ccc2c(c1)N(C)C(=O)CO2
598 s	CCC1CCCCN1C(=O)c1cnc2nc(C)ccc2c1Nc1ccc(CC(=O)O)cc1 (stereo not given)
